Measurements reported in article PMC5533769, “A cell-based high-throughput screening assay system for inhibitor compounds of antigen presentation by HLA class II molecule” (Scientific Reports, 2017).
“Also recorded” adds a separate entry of the source. Where two headings read alike, the source gives them in different places.

What was measured:
[1] = biological target: HLA-DR4 (DRA*01:01/DRB1*04:05) (Homo sapiens, UniProt P01903+P01911, A100R/A169T/D86S/F76Y/I96L/K127E/L162R/M171V/N62H/P40V/Q125Y/R42H/S133A/S149N/S66Y/V115G/V209L/W38E); test: FACS binding of biotinylated peptide to HLA-DR4 on HEK293T cells
[2] = system: HLA-DR (DRB1*01:01, DRB1*04:05, DRB1*09:01, DRB1*15:01); test: FACS binding of biotinylated peptide to panel of HLA-DR on HEK293T cells; set-up: species or system human; conditions: FACS, SA-PE; […]; biotinylated peptide 30 µM, >5 h
[3] = system: HEK293T cells (non-transfected); format: binding; conditions: FACS, SA-PE, biotinylated peptide 30 µM, >5 h
DR4 (DRB1*04:05) = DR4 (DRB1*04:05) (Homo sapiens, UniProt P01903+P01911, A100R/A169T/D86S/F76Y/I96L/K127E/L162R/M171V/N62H/P40V/Q125Y/R42H/S133A/S149N/S66Y/V115G/V209L/W38E); conditions: ref [24]; cited from earlier work
Description: To determine the genotype specificity and relative affinity of known epitope peptides, MBP83-99 and BiP336-355 peptide loading assays were performed on cells expressing DRA*01:01 plus various HLA-DRB1 (Supplemental Fig. 1A). […] However, the extent of peptide loading, which is evaluated by the mean fluorescence intensity (MFI), was the highes ...

[4] = biological target: T1, HLA-DR1 (DRA*01:01/DRB1*01:01) (Homo sapiens, UniProt P01903+P01911, A100R/D57E/F55L/F60I/F76Y/I96L/L162R/M171V/P40L/Q125E/R42F/V115G/Y59C); test: FACS binding of biotinylated peptide to HLA-DR1 on HEK293T cells; conditions: SA-PE, biotinylated peptide 30 µM, >5 h, 3 to 6 independent experiments
[5] = biological target: T1, HLA-DR1 (DRA*01:01/DRB1*01:01); test: FACS binding of biotinylated peptide to HLA-DR1 on stable 3T3 cells; conditions: SA-PE, stable 3T3, DRA*01:01 + DRB1*01:01, biotinylated peptide 30 µM overnight
[6] = system: HLA-DR (DRB1*01:01, DRB1*04:05, DRB1*09:01, DRB1*15:01); test: FACS binding of biotinylated peptide to panel of HLA-DR on stable 3T3 cells; set-up: species or system human; conditions: Supplemental Fig. 1 vs. Supplemental Fig. 2
parental 3T3 cells [7] = test: FACS binding of biotinylated peptide to parental 3T3 cells; set-up: species or system murine; conditions: SA-PE, parental 3T3, no HLA-DR, biotinylated peptide 30 µM overnight
DR1 (DRB1*01:01) [8] = biological target: T2, DR1 (DRB1*01:01) (Homo sapiens, UniProt P01903+P01911, A100R/D57E/F55L/F60I/F76Y/I96L/L162R/M171V/P40L/Q125E/R42F/V115G/Y59C); test: 96-well plate peptide binding assay, DR1-expressing 3T3 cells, SA-β-gal/4MUG; conditions: for Kd: live DR1-expressing 3T3, 96-well, 4MUG, parental binding subtracted
T2 construct: The open reading frame for DRA or DRB1 were flanked with Xho 1 and EcoR1 sites; expressed in transfected cells

parental 3T3 cells [9] = test: 96-well plate peptide binding assay, parental 3T3 cells, SA-β-gal/4MUG; set-up: species or system murine; conditions: SA-β-gal 3,000-fold
[10] = system: DRB1 molecules (almost all genotypes); conditions: ref [25]; cited from earlier work
DR15 (DRB1*15:01) [11] = biological target: T3, DR15 (DRB1*15:01) (Homo sapiens, UniProt P01903+P01911); test: 96-well competition assay: inhibition of MBP83-99 loading to DR15-expressing 3T3 cells; format: binding; conditions: DR15-expressing 3T3; 1 h pre-incubation, then MBP83-99 6 h; 4MUG
T3 construct: The open reading frame for DRA or DRB1 were flanked with Xho 1 and EcoR1 sites; expressed in transfected cells

DR1 (DRB1*01:01) [12] = biological target: T2, DR1 (DRB1*01:01); test: 96-well competition assay: inhibition of MBP83-99 loading to DR1-expressing 3T3 cells; format: binding; conditions: DR1-expressing 3T3; 1 h pre-incubation, then MBP83-99 (5 µM) 6 h; 4MUG
DR15 (DRB1*15:01) [13] = biological target: T3, DR15 (DRB1*15:01); test: 96-well plate peptide binding assay, DR15-expressing 3T3 cells, SA-β-gal/4MUG; conditions: parental vs. DR15-expressing 3T3 cells; MBP83-99 5 µM
Description: (§1) Figure 3 Detection and screening system of antigen peptide binding to HLA on 3T3 cells in 96 well plate. (A) Scheme of the detection of HLA-bound peptides on cells in 96 well plates. HLA expressing cells are incubated with biotinylated antigen peptides, and bound peptides are probed with SA-β-gal, followed by enzyme reaction with chromogenic (ONPG) or fluorogenic substrate (4MUG). (B) Detection of HLA-bound peptides on 3T3 cells using fluorogenic substrate (4MUG) in 96 well plates. Two 96-well plates of DR15-expressing cells were incubated with MBP83-99 for 6 h, fixed with glutaraldehyde, and subjected to blocking with a blocking solution as detailed in the methods section. Thereafter, biotinylated peptides in one plate were probed with low concentration of SA-β-gal (3,000-fold dilution) and detected by using 4MUG. The other plate was analysed using a chromogenic substrate (ONPG) in Supplementary Fig. 3. (C) Time and concentration dependence of MBP83-99 binding to DR15-expressing 3T3 cells. The assay was conducted as in (B).
(§2) Unless otherwise described, the assay was conducted as follows. […] The reaction was stopped by addition of 100 µL of 0.5 M Na2CO3, and fluorescence intensity (Ex: 365 nm, Em: 450 nm) was measured by using a plate reader (Spectra Max plus, Molecular Devices, Sunnyvale, CA, USA). Wells devoid of cells and incubation with biotinylated peptide, but otherwise treated by using the same experimental procedure, were set as blank, and the mean fluorescence value for the wells was subtracted. The apparent Kd values for the binding of MBP83-99 and DR1 (DRB1*01:01) or DR15 (DRB1*15:01) was calculated by double reciprocal plot (1/[P-HLA] = Kd/[HLA]total [P] + 1/[HLA]total; where P represents peptide) or Scatchard plot ([P-HLA]/[P] = [HLA]total/Kd − [P-HLA]/Kd) after subtracting values for HLA-independent peptide binding (parental 3T3 cells) from the respective cells in a peptide concentration dependency experiment. […]

DR15 (DRB1*15:01) [14] = biological target: T4, DR15 (DRB1*15:01) (Homo sapiens, UniProt P01903+P01911, OTHER:DRA*01:01ANDEACHDRB1VECTORSWEREINTRODUCEDINTOTHECELLSAT1:1RATIO/OTHER:MBP83-99TODR15(DRB1*15:01)); test: as above; conditions: live DR15-expressing 3T3, 96-well, 4MUG, 8-h incubation, parental binding subtracted
T4 construct: The open reading frame for DRA or DRB1 were flanked with Xho 1 and EcoR1 sites; expressed in transfected cells
Description: as §1, §2

RSTMKPVQKVLEDSDLKKSD [BiP336-355, immunoglobulin binding protein (BiP) 336–355, biotinylated self-antigen peptide of BiP]
Peptide binding (MFI), HLA-DR4, extended incubation ([1]; HEK293T, DRB1*04:05, incubation extended to 20 h, data not shown): could not observe a further increase | Peptide binding (MFI), HLA-DR4 ([1]; SA-PE, HEK293T transiently expressing DRA*01:01 + DRB1*04:05, biotinylated peptide 30 µM, >5 h): could bind to DR4-expressing HEK293T cells, although very slightly | Peptide binding across HLA-DR genotypes [2]: not to other DR-expressing cells | Peptide binding to control cells [3]: No loading of either peptide was observed | Presentation by DR4 (DR4 (DRB1*04:05)): self-antigen presented by DR4 (DRB1*04:05)

ACPKYVKQNTLKLATG [HA305-320, influenza hemagglutinin (HA) 305–320, biotinylated influenza hemagglutinin peptide]
Peptide binding (MFI), HLA-DR1 [4]: the highest level | Peptide binding across HLA-DR genotypes [2]: did increase in any genotypes of DRB1-expressing cells | Peptide binding, DR1 on 3T3 [5]: increased in cells expressing HLA, especially DR1; also recorded: could be loaded onto HLA to a sufficient level | Binding intensity in 3T3 compared with HEK293T cells [6]: far less than those in HEK293T cells | Peptide binding to parental 3T3 cells (HLA-independent) (parental 3T3 cells [7]): significant degree of apparent binding; also recorded: bound to the cell surface independently of HLA, especially avidly in 3T3 cells | Peptide binding to parental 3T3 cells, 96-well, and after maximum (DR1 (DRB1*01:01) [8]): gradually decreased | HLA-independent binding share of entire signal, DR1 cells (DR1 (DRB1*01:01) [8]; […], HA305-320, obtained at 8 h): exceeded 80% | Time to maximum binding, DR1 (DR1 (DRB1*01:01) [8]; […], then gradually decreased): 8 h | Time to almost plateau loading (Discussion) (DR1 (DRB1*01:01) [8]; cell-based 96-well assay, […]): ~8 h | Peptide loading, parental 3T3, 96-well (parental 3T3 cells [9]): a significant amount of HA305-320 binding was observed in the parental cells | Binding to DRB1 genotypes [10]: bind to almost all genotypes of DRB1 molecules; also recorded: binds to every genotype of HLA-DRs

LMAKARQKVLMPSTMLP [scCLIP, scramble peptide (scCLIP), scramble version of the CLIP peptide]
Inhibitory effect on MBP83-99 loading, DR15 (DR15 (DRB1*15:01) [11]): no inhibitory effect | Inhibitory effect on MBP83-99 loading, DR1 (DR1 (DRB1*01:01) [12]): no inhibitory effect

CC[C@H](C)[C@H](NC(=O)[C@H](CC(N)=O)NC(=O)[C@H](CCCCN)NC(=O)[C@H](Cc1ccccc1)NC(=O)[C@H](Cc1ccccc1)NC(=O)[C@H](Cc1c[nH]cn1)NC(=O)[C@@H](NC(=O)[C@@H](NC(=O)[C@@H]1CCCN1C(=O)[C@H](CC(N)=O)NC(=O)[C@@H](N)CCC(=O)O)C(C)C)C(C)C)C(=O)N[C@H](C(=O)N[C@H](C(=O)N1CCC[C@H]1C(=O)N[C@@H](CCCNC(=N)N)C(=O)N[C@H](C(=O)N1CCC[C@H]1C(=O)O)[C@@H](C)O)[C@@H](C)O)C(C)C [MBP83-99, myelin basic protein (MBP) 83–99]
HLA-independent binding share of apparent signal, DR15 cells (DR15 (DRB1*15:01) [13]): < 10% | Kd (DR15 (DRB1*15:01) [14]; Scatchard plot, R² = 0.8781, read-out: apparent Kd, DR15, Scatchard plot): 3 µM | Kd (DR15 (DRB1*15:01) [14]; double reciprocal plot, R² = 0.9378, read-out: apparent Kd, DR15, double reciprocal plot): 2 µM | Kd (DR1 (DRB1*01:01) [8]; Scatchard plot, R² = 0.8216, read-out: apparent Kd, DR1, Scatchard plot): 14 µM | Kd (DR1 (DRB1*01:01) [8]; double reciprocal plot, R² = 0.99, read-out: apparent Kd, DR1, double reciprocal plot): 10 µM | HLA-independent binding share of apparent signal, DR1 cells (DR1 (DRB1*01:01) [8]; parental vs. DR1-expressing 3T3 cells, MBP83-99 5 µM): < 30%
